Drawing on US20230390274A1 (EPIRIUM BIO INC., priority 2020, published 2023), this text covers IC50 for 45 compounds.

Chain of 15-PGDH/HPGD (P15428 whole entry): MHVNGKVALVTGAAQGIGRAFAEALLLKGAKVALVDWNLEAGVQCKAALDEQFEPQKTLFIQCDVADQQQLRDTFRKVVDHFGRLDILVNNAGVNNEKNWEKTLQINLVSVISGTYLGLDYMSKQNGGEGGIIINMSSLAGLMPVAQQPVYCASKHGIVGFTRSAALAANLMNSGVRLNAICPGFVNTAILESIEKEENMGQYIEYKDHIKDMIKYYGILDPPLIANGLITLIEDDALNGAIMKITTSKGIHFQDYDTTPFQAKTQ

The first experiment concerns the target 15-PGDH/HPGD (Homo sapiens (Human), UniProt P15428). Description: hPGDH inhibitor screening biochemical assay. As to conditions: 10 nM 15-PGDH/HPGD, 15 μM PGE2, 0.25 mM NAD; read-out: hPGDH: Average IC50. As for the experimental part:
A hydroxyprostaglandin dehydrogenase inhibition screening biochemical assay can be performed to assess the synthesized inhibitors provided herein. Provided herein is an exemplary biochemical assay for hPGDH inhibitor screening.
The in vitro biochemical assay can be performed in white, 384 plates in total 20 μl reaction volume consisting of 10 nM of 15-PGDH/HPGD (R&D System #5660-DH), 15 μM Prostaglandin E2 (Sigma, Cat #P5640-10MG) and 0.25 mM β-Nicotinamide adenine dinucleotide sodium salt (Sigma, Cat #N0632-5G) made in reaction buffer (50 mM Tris-HCl, pH 7.5, 0.01% Tween 20) at 10-point dose response curve for test/tool compounds. Briefly, 5 μl (4×) of compounds solution and 5 μl (final concentration, 10 nM) of enzyme solution is added to white 384 well plates and incubated for 10 mins at 37° C. 5 μl (4×) of Prostaglandin E2 and 5 μl (4×) of β-Nicotinamide adenine dinucleotide sodium salt is added to the wells and incubated for 10 mins at rt. Fluorescence is recorded at ex/em=340 nm/485 nm. The percentage (%) inhibition of enzyme activity was determined relative to […] (1% DMSO) and IC50 was calculated using GraphPad prism software (four parameter-variable slope equation).
For the compound `O=C(c1cnc2c(ccn2-c2ccc(-c3noc(=O)[nH]3)nc2)c1)N1CCC(F)(F)CC1` [A-254, 3-(5-(5-(4,4-difluoropiperidine-1-carbonyl)-1H-pyrrolo[2,3-b]pyridin-1-yl)pyridin-2-yl)-1,2,4-oxadiazol-5(4H)-one], the IC50 was below 0.1 µM. As for `O=C(NC(CO)CO)c1ccc(-n2ccc3cc(C(=O)N4CCC(F)(F)CC4)cnc32)cc1` [A-222], the half-inhibitory concentration (IC50) is below 0.1 µM.

As to `CC(C)(C)NC(=O)c1ccc(-n2ccc3cc(C(=O)N4CCC(F)(F)CC4)cnc32)cn1` [A-218, N-(tert-butyl)-5-(5-(4,4-difluoropiperidine-1-carbonyl)-1H-pyrrolo[2,3-b]pyridin-1-yl)picolinamide], the IC50 is below 0.1 µM.

With `NC(=O)c1ccc(-n2cc(Cl)c3cc(C(=O)N4CCC(F)CC4)cnc32)cc1` [A-203, 4-(3-chloro-5-(4-fluoropiperidine-1-carbonyl)-1H-pyrrolo[2,3-b]pyridin-1-yl)benzamide], the IC50 is below 0.1 µM. The same measure, in the same setting: then `O=C(Nc1cc(C2CC2)[nH]n1)c1cncc(-n2ccc3cc(C(=O)N4CCC(F)(F)CC4)cnc32)c1` [A-285, N-(5-cyclopropyl-1H-pyrazol-3-yl)-5-(5-(4,4-difluoropiperidine-1-carbonyl)-1H-pyrrolo[2,3-b]pyridin-1-yl)nicotinamide], with below 0.1 µM; and `COc1ccc(-n2c(C)nc3cc(C(=O)N4CCCCC4)ccc32)cc1` [A-310], with below 0.1 µM. Same read-out and setting: in the case of `N#Cc1cncc(-n2ccc3cc(C(=O)N4CCCCC4)cnc32)c1` [A-351] it was below 0.1 µM; in that of `N#Cc1ccc(-n2ccc3cc(C(=O)N4CC[C@H](F)C4)cnc32)cc1` (single isomer, unassigned) [A-340], below 0.1 µM; in that of `N#Cc1ncc(-n2ccc3cc(C(=O)N4CCCCC4)cnc32)cn1` [A-118], below 0.1 µM. Turning to `NC(=O)c1ccc(-n2ccc3cc(C(=O)N4CCCCC4)cnc32)cn1` [A-124], the IC50 is below 0.1 µM.

As for `O=C(c1cnc2c(ccn2-c2cccc(Cl)c2)c1)N1CCCCC1` [A-40], the IC50 was below 0.1 µM.

Turning to `C[C@@H]1C[C@H](C)CN(C(=O)c2cnc3c(ccn3-c3ccc(C(N)=O)cc3)c2)C1` [A-210, 4-(5-((3R,5S)-3,5-dimethylpiperidine-1-carbonyl)-1H-pyrrolo[2,3-b]pyridin-1-yl)benzamide], the IC50 is below 0.1 µM. Take `O=C(c1ccc2c(c1)ncn2-c1ccc(O)c(Cl)c1)N1CCCCC1` [A-39, (1-(3-chloro-4-hydroxyphenyl)-1H-benzo[d]imidazol-5-yl)(piperidin-1-yl)methanone]: the IC50 was below 0.1 µM.

`Nc1ncc(-n2ccc3cc(C(=O)N4CCCCC4)cnc32)cc1Cl` [A-209]: the IC50 was below 0.1 µM. On the same count and under the same terms, in the case of `CC(C)NC(=O)c1ccc(-n2ccc3cc(C(=O)N4CCC(F)(F)CC4)cnc32)cc1` [A-216] it was below 0.1 µM; in that of `NC(=O)c1cncc(-n2ccc3cc(C(=O)N4CCC(F)CC4)cnc32)c1` [A-346], below 0.1 µM. Turning to `O=C(c1cnc2c(ccn2-c2cccc(CO)c2)c1)N1CCCCC1` [A-164], the IC50 is below 0.1 µM. Consider `Cc1cncc(-n2cc(Cl)c3cc(C(=O)N4CCC(F)CC4)cnc32)n1` [A-296, (3-chloro-1-(6-methylpyrazin-2-yl)-1H-pyrrolo[2,3-b]pyridin-5-yl)(4-fluoropiperidin-1-yl)methanone], for which the IC50 was below 0.1 µM.

In the case of `O=C(NC1CNC1)c1ccc(-n2ccc3cc(C(=O)N4CCC(F)(F)CC4)cnc32)cc1` [A-227], the IC50 is below 0.1 µM. Regarding `COc1cccc(-c2cn(C)c3cc(C(=O)N4CCC(F)CC4)cnc23)c1` [A-307, (4-fluoropiperidin-1-yl)(3-(3-methoxyphenyl)-1-methyl-1H-pyrrolo[3,2-b]pyridin-6-yl)methanone], the concentration for half-maximal inhibition (IC50) fell in the range of 0.1 to 1 µM. Take `Cc1cc(-n2ccc3cc(C(=O)N4CCCCC4)cnc32)cnc1N` [A-208]: the IC50 is below 0.1 µM. As for `O=C(c1cnc2c(ccn2-c2cccc(C(=O)N3CC[S+]([O-])C3)c2)c1)N1CCC(F)(F)CC1` (stereo not drawn) [A-294, (4,4-difluoropiperidin-1-yl)(1-(3-(1-oxidothiazolidine-3-carbonyl)phenyl)-1H-pyrrolo[2,3-b]pyridin-5-yl)methanone], the IC50 is below 0.1 µM. Still for that read-out and setting: in the case of `Cc1ccc(S(=O)(=O)n2ccc3cc(C(=O)N4CCCCC4)cnc32)cc1` [A-111, piperidin-1-yl(1-tosyl-1H-pyrrolo[2,3-b]pyridin-5-yl)methanone] it was at least 1 µM; in that of `NC(=O)c1cncc(-n2cc(Cl)c3cc(C(=O)N4CCC(F)(F)CC4)cnc32)c1` [A-273], below 0.1 µM. The same measure, in the same setting: in the case of `O=C(c1cnc2c(c1)c(Cl)cn2-c1cncnc1)N1CCC(F)CC1` [A-60] it was below 0.1 µM. Take `COc1ccc(-n2ccc3cc(C(=O)N4CCC(c5ccccc5)CC4)cnc32)cc1` [A-134]: the IC50 is at least 1 µM.

Consider `O=C(c1ccc(COc2ccccc2Br)cc1)N1CCCCC1` [A-69], for which the IC50 is below 0.1 µM. As for `N#Cc1cccc(-n2ccc3cc(C(=O)N4CCC(F)CC4)cnc32)c1` [A-115], the IC50 was below 0.1 µM.

With `N#Cc1ccc(-n2ccc3cc(C(=O)N4CCCCC4)cnc32)cn1` [A-117], the IC50 was below 0.1 µM. On to `O=C(c1cnc2c(ccn2-c2cccc(CO)c2)c1)N1CCC(F)CC1` [A-128], for which the IC50 was below 0.1 µM. For `O=C(Nc1ccno1)c1ccc(-n2ccc3cc(C(=O)N4CCC(F)(F)CC4)cnc32)cn1` [A-258], the IC50 is below 0.1 µM.

For `COc1ccc(-n2cc(Cl)c3cc(C(=O)N4CCC(F)CC4)cnc32)cc1` [A-165, (3-chloro-1-(4-methoxyphenyl)-1H-pyrrolo[2,3-b]pyridin-5-yl)(4-fluoropiperidin-1-yl)methanone], the IC50 is below 0.1 µM. In the case of `O=C(c1cnc2c(ccn2C2CCC(F)(F)CC2)c1)N1CCCCC1` [A-320], the IC50 was at least 1 µM. For the compound `O=C(c1cnc2c(c1)c(Cl)cn2-c1cccnc1)N1CCC(F)CC1` [A-57], the IC50 was below 0.1 µM. On to `Cc1nc(-c2ccc(-n3c(CCC(C)(C)O)cc4cc(C(=O)N5CCC(F)(F)CC5)cnc43)cc2)no1` [A-337, (4,4-difluoropiperidin-1-yl)(2-(3-hydroxy-3-methylbutyl)-1-(4-(5-methyl-1,2,4-oxadiazol-3-yl)phenyl)-1H-pyrrolo[2,3-b]pyridin-5-yl)methanone], for which the IC50 was below 0.1 µM. Consider `O=C(c1ccc(COc2ccccc2-c2cncs2)cc1)N1CCCCC1` [A-79], for which the IC50 is below 0.1 µM. As for `O=C(c1ccc2c(c1)ncn2-c1cccc(Cl)c1)N1CC2CCCC2C1` (stereo not drawn) [A-1], the IC50 was below 0.1 µM.

Consider `O=C(c1ccc(-n2ccc3cc(C(=O)N4CCC(F)(F)CC4)cnc32)cc1)N(CCO)CCO` [A-249], for which the IC50 is below 0.1 µM.

Staying with this experiment, now noted: Table 1, PGDH inhibitors with a 6-5 ring core; read-out: hPGDH: IC50.
On to `O=C(c1ccc2c(c1)ncn2-c1cccc(Cl)c1)N1CC2(CCC2)C1` [drawing 99], for which the IC50 came to 0.0439 µM.

With `NC(=O)CCc1nc2cc(C(=O)N3CCCCC3)ccc2n1-c1cccc(Cl)c1` [drawing 85], the IC50 was determined as 0.0449 µM. The same measure, in the same setting: then `O=C(c1ccc2c(c1)ncn2-c1cccc(Cl)c1)N1CC2CC2C1` (stereo not drawn), with 0.116 µM; and `NC(=O)Cc1nc2cc(C(=O)N3CCCCC3)ccc2n1-c1cccc(Cl)c1`, with 0.576 µM. Still for that read-out and setting: then `O=C(c1ccc2c(c1)c(Cl)cn2-c1cccc(Cl)c1)N1CCCCC1` [drawing 104], with 0.0106 µM; and `Cc1nc2cc(C(=O)N3CCCCC3)ccc2n1-c1cccc(Cl)c1` [drawing 89], with 0.0056 µM.

Still in this experiment, the particulars now being: Table 2, PGDH inhibitors with a phenyl core; read-out: hPGDH: IC50.
For the compound `COc1cccc(C(=O)Nc2ccc(C(=O)N3CCCCC3)cc2)c1`, the IC50 is 0.135 µM.

As a reminder, the IC50 is the concentration that inhibits the measured activity by half.
